According to US20160083374A1, “AMORPHOUS FORM OF CANAGLIFLOZIN AND PROCESS FOR PREPARING THEREOF” (CADILA HEALTHCARE LIMITED, priority 2013, published 2016):

Columns and labels:
[1] = Solid-form stability under normal stability conditions; type: physicochemical; conditions: amorphous canagliflozin obtained by removal of solvent per the invention
Excerpt: The obtained amorphous canagliflozin is stable under normal stability conditions and substantially free from residual solvent. Therefore, there is no physical change observed from amorphous form to crystalline form during the stability.
In another general aspect, the stable amorphous form of canagliflozin, is stored under nitrogen atmosphere and packed in a double polythene bag tied with a thread, keeping primary packing containing amorphous canagliflozin or salts thereof inside a black color polyethylene bag containing oxygen busters and sealing it, placing above the double polyethylene bag inside a triple laminated bag optionally containing oxygen busters and sealing it, and placing the sealed triple laminated bag inside a closed high density polyethylene (HDPE) container and storing in controlled environment chamber at about 25° C. and/or 40° C.

[2] = cited from earlier work

stability of amorphous form (change from amorphous to crystalline form) [1]: stable
SMILES: Cc1ccc([C@@H]2O[C@H](CO)[C@@H](O)[C@H](O)[C@H]2O)cc1Cc1ccc(-c2ccc(F)cc2)s1 [amorphous canagliflozin]
physical change between sorption/desorption cycles ([2]; amorphous canagliflozin of US '487 A1, humidity increased from 70% to 90% RH): conversion or partial conversion from the amorphous state to a crystalline state
hygroscopicity by DVS ([2]; amorphous canagliflozin prepared by the process of US '487 A1 (toluene solution into n-heptane)): hygroscopic
